Reference: patent US12168033B2, “Synergistic composition for osteoarthritis” (LAILA NUTRACEUTICALS, priority 2014, dated 2024)

Tested on: Adjuvant Induced Arthritis
Experiment: Adjuvant Induced Arthritis in Sprague Dawley rats, Complete Freund's Adjuvant, 20 days (Example 20)
Type: in vivo
From the text: Sprague Dawley Rats were housed in solid bottom autoclaved polypropylene cages at three rats per cage with stainless steel top grill. Animals were provided with rodent pellet feed and mineral water ad libitum. The animals were acclimatized for a period of 3 days prior to enrollment into the experiment and they are habituated/adapted to the experimenter and to the experimental conditions for measurement of hind limb weight bearing capacity in the Incapacitance meter. A group of 35 animals were examined and 30 healthy SD rats were selected for the study and were randomly assigned to one of five different groups based on the paw volume, i.e., normal control (G1), vehicle control (G2), two groups (G3 & G4) supplemented with test substances composition-11 (200 mg 400 mg) and with reference drug prednisolone 10 mg/kg (G5). After 7 days administration of test item, reference item or vehicle, on day 8 arthritis was induced in rats of all groups except G1 by a single subcutaneous injection of 50 μL Complete Freund's Adjuvant (Sigma-Aldrich, USA), into the sub plantar region of left hind limb. Control group animals were injected with 0.1 mL normal saline (0.9% w/v sodium chloride). The vehicle, test items and reference drug were administered till completion of the study, i.e., 20 days. Paw volume was measured by a Plethysmometer (Pan Lab, LE7500) on day 0 (prior to treatment) and day 20. The difference between the final and initial paw volume was considered as edema volume. The in vivo anti-inflammatory responses of test compounds were estimated by calculating the percentage inhibition of paw edema when compared to the paw edema observed in the CMC supplemented control group. […] Percentage weight bearing capacity was measured in all the groups before induction and on 20th day of treatment using Incapacitance Meter (IITC Life Science Inc., CA).

**Q.** What does the source list for `C[C@]12C=CC(=O)C=C1CC[C@@H]1[C@@H]2[C@@H](O)C[C@@]2(C)[C@H]1CC[C@]2(O)C(=O)CO` [Prednisolone, prednisolone]?
**A.** Percent Weight Bearing on Left Hind Limb, Day-20 (10 mmp (prednisolone), Day-20, mean ± S.E.M, six rats): 49.88 ± 1.13%; Percent Weight Bearing on Left Hind Limb, Before Induction (10 mmp (prednisolone), before induction): 49.57 ± 0.55%; % inhibition of paw edema (prednisolone 10 mg/kg, day 20): 69.7%
